Entries after “also recorded” stand apart in the source; their conditions may differ.
Tests used:
[1] = test system: experimental autoimmune encephalomyelitis (EAE) mouse model; assay: Experimental autoimmune encephalomyelitis (EAE) mouse model; format: in vivo, mice; conditions: for disease score (EAE severity score): compared to vehicle
Method: The EAE model was used to evaluate the potential of SPPL2a inhibition in an in vivo mouse model of autoimmune disease. In this study, EAE was induced in female mice, aged 7-9 weeks, using an EAE induction kit (EK-2160, Hooke Labs) containing human recombinant MOG 1 125 antigen emulsified in CFA. EAE severity score was measured on a scale of 0-6 as per the IACUC approved protocol for 20 days. Mice were treated orally with the SPPL2a inhibitor Example A at 15 mg/kg and 30 mg/kg twice daily (first dose given on the same day prior to immunization). Animals were euthanized and tissues, plasma, and serum were collected for further analysis.
Anti-mouse MOG antibodies were measured in the serum of mice using quantitative ELISA kit (AS-55156, AnaSpec). […] All data is presented as mean+SEM. For comparison of more than two groups, ANOVA was used. All statistical analysis was performed using GraphPad Prism™ 10 or higher.

[2] = test system: Collagen-Induced Arthritis (CIA) mouse model; assay: Collagen-induced arthritis (CIA) mouse model; format: in vivo, DBA-1 mice; conditions: 50 mg/kg dose, compared to the vehicle
From the text: Female DBA-1 mice (8-9 weeks old) were used in the CIA mouse model. This model is widely used to evaluate efficacy of immunomodulatory drugs on autoimmune diseases, such as arthritis. DBA/1 mice develop collagen-induced arthritis (CIA) after immunization with bovine type II collagen emulsified in complete Freund's adjuvant (CFA), followed by a booster dose 21 days later. Both the immunizations were given subcutaneously, approximately 25 mm from the base of the tail on opposite sides. Immunizations were performed under a short duration isoflurane anesthesia. Mice were evaluated for the disease progression up to 45 days. […] Statistical significance was determined using Two-way ANOVA with multiple comparison tests to compare all groups to the vehicle.

[3] = test system: Imiquimod (IMQ)-induced psoriasis mouse model; assay: Imiquimod (IMQ)-induced psoriasis mouse model; format: in vivo, BALB/c female mice; conditions: 15 mg/kg PO BID
Method: A comparative study was performed to evaluate the efficacy of the deuterated-inhibitor Example 1 to Example A in the mouse model of psoriasis. Briefly, BALB/c female mice (7-8 week age) were shaved on the dorsal skin and 62.5 mg of IMQ cream was applied daily until day 9. Simultaneously, 15 mg of IMQ cream was applied on one ear daily until day 9. Example 1 and Example A were given orally (PO) at 15 mg/kg, BID. Mice were monitored and clinical signs of psoriasis were recorded (PSI score), both on the dorsal skin (erythema, scaling & thickness) and on the IMQ-applied ear (thickness). All data is presented as mean+SEM. For comparison of more than two groups, ANOVA was used. Pearson product moment correlation was used to test for correlations. All statistical analysis was performed using GraphPad Prism™ 10.

[4] = test system: MRL/MpJ-Faslpr/J mice, lupus-like disease; assay: Mouse model of systemic lupus (SLE); format: in vivo
Method: A mouse model of SLE was used to evaluate the treatment potential of SPPL2a inhibition by Example A in vivo in female mice aged 8 weeks. The MRL/MpJ-Faslpr/J (JAX stock #000485) mice used in this study develop a spontaneously accelerated and aggressive lupus-like disease characterized by immune-mediated damage to the organs, and by the presence of circulating auto-Abs against dsDNA, which are serological hallmarks of SLE. Mice were prophylactically treated orally with Example A at 15 mg/kg and 30 mg/kg dose, twice daily after allotment into different groups starting at week 10. As a control, cyclophosphamide at 25 mg/kg dose was given intraperitoneally, twice weekly. Mice were monitored weekly for the clinical sign development, proteinuria, skin lesions and lymphadenopathy. The study was terminated by euthanizing mice at 20 weeks of age following 10 weeks of dosing. All data is presented as mean+SEM. For comparison of more than two groups, ANOVA was used. All statistical analysis was performed using GraphPad Prism™10.
Inflammatory cytokine levels (TNFα and IFNγ) and murine immunoglobulin levels (Ig) were measured using MSD® multi-spot assay kits.

MoDCs = assay: DC-maturation assay (monocyte-derived dendritic cells from human PBMCs); format: cell-based; conditions: 24 h
Method: Dendritic cells are crucial players in the antigen presentation process and inflammation. […] To validate the functional relevance of SPPL2a inhibitor, a DC-maturation assay was utilized. Human PBMCs were isolated from fresh blood using Histoplaque gradients and plated overnight at 37° C. to allow monocytes to adhere. Non-adherent cells were washed off the following day and DC-differentiation media containing GM-CSF and IL-4 was added and incubated for 5 d. Immature MoDCs were separated and washed. A cocktail of maturation media with SPPL2a inhibitor (at indicated concentrations) was added to the wells and cells were incubated for 24 h. Supernatants were collected and processed to measure TNFα and IL-12 by ELISA. All data is presented as mean+SEM. For comparison of more than two groups, ANOVA was used. All statistical analysis was performed using GraphPad Prism™ 10.

[5] = both doses tested (15 and 30 mg/kg orally twice daily)
[6] = both treated groups (15 and 30 mg/kg BID)

CNC(=O)c1nc(C)c(C(=O)NC[C@@H](C)C(=O)N[C@@H]2C(=O)N3CCCN3Cc3ccccc32)s1 [Example A, N^2,4-dimethyl-N^5—((R)-2-methyl-3-oxo-3-(((S)-11-oxo-2,3,10,11-tetrahydro-1H,5H-benzo[d]pyrazolo[1,2-a][1,2]diazepin-10-yl)amino)propyl)thiazole-2,5-dicarboxamide]
IgG2a level ([1]; 15 mg/kg): Trends to lower Ig titers
IgG2b level ([1]; 15 mg/kg): Trends to lower Ig titers
IgM level ([1]; 15 mg/kg): Trends to lower Ig titers
disease score (EAE severity score) ([1]; 15 mg/kg orally twice daily): significant reduction
IgA ([1]; 30 mg/kg): lower total IgG1 and IgA trend
IgG2a titer ([1]; 30 mg/kg): Significant reduction
IgG2b titer ([1]; 30 mg/kg): Significant reduction
IgG3 titer ([1]; 30 mg/kg): Significant reduction
IgM titer ([1]; 30 mg/kg): Significant reduction
total IgG1 ([1]; 30 mg/kg): lower total IgG1 and IgA trend
disease score (EAE severity score) ([1]; 30 mg/kg orally twice daily): significant reduction
total Ig levels ([1]; EAE induced mice): significantly inhibited
clinical signs of EAE ([1]; oral, twice daily, starting at day 13 of the treatment): significantly reduced
anti-MOG antibodies in serum ([1]; quantitative ELISA): significant reduction
clinical signs of CIA [2]: significantly reduced
dorsal PSI scores [3]: alleviate
ear thickness measurements [3]: alleviate
clinical signs of psoriasis disease ([3]; compared to vehicle group): significantly reduced
Mouse IL-12 level in plasma ([3]; terminal day): significant reduction
Mouse TNFα level in plasma ([3]; terminal day): significant reduction
TNFα levels in mouse serum ([4]; 15 mg/kg BID): No significant changes
Levels of IgA ([4]; 15 mg/kg dose): significantly down regulated
kidney pathology ([4]; 15 mg/kg, compared to vehicle control): did not exhibit a test article-related change compared to the vehicle control except in the blood vessels
TNFα levels in mouse serum ([4]; 30 mg/kg BID): significantly inhibits
antibody production in mouse serum ([4]; 30 mg/kg BID): significantly inhibits
Levels of IgA ([4]; 30 mg/kg dose): trended lower
kidney pathology: membranoproliferative nephritis, tubular dilation and casts, interstitial inflammation, fibrosis, blood vessel necrosis, and inflammation ([4]; 30 mg/kg oral twice daily): statistically significant decrease
Serum IFNγ levels ([4]; both doses (15 and 30 mg/kg BID)): modest increase
proteinuria [4, 5]: effectively reduced; also recorded: Significant reduction
skin lesion formation / skin lesional scores [4, 5]: effectively reduced; also recorded: Significant reduction
IgG1 [4, 6]: significantly lower
IgG2a [4, 6]: significantly lower
IgG2b [4, 6]: significantly lower
IgG3 [4, 6]: significantly lower
IgM [4, 6]: significantly lower
anti ds-DNA antibody production ([4]; compared to vehicle control): significantly reduced
lymphadenopathy ([4]; highest dose tested): significantly reduced; also recorded: Significant reduction
IL-12 secretion (MoDCs; MoDC supernatants, ELISA): significantly decreased
TNFα secretion (MoDCs; MoDC supernatants, ELISA): significantly decreased
MoDC maturation (MoDCs; compared to the stimulation only condition): significantly decreased
